# Measured values as given in patent EP1283052A1, “Pharmaceutical composition containing caspase-8 and /or caspase-9 useful for overcoming glucocorticoid- and cancer therapy-induced apoptosis of tumours” (Deutsches Krebsforschungszentrum Stiftung des öffentlichen …, priority 2001, dated 2003).
# How the values were obtained:
# Assay type in all cases: cell-based, human
# CD95-L, TRAIL and TNF-α = test: Western blot of death ligand expression in P5 and CEM cells; conditions: cisplatin alone (1-5 µg/ml), both cell types; Fig. 2a
# Method: (§1) • (a) Left: P5 an CEM cells were treated with cisplatin (1-5 µg/ml) in the absence or presence of DEX (1 µM) as indicated. Proteins were extracted and expression of CD95-L, TRAIL or TNF-α was detected by Western blot analysis. The size of the proteins in kDa is indicated. Right: HeLa and P5 were treated with CD95 agonistic antibody αAPO-1 (CD95, 1 µg/ml), recombinant TRAIL protein (TRAIL, 100 ng/ml) or recombinant TNF-α protein (TNF-α, 100 ng/ml) in the absence (white bars) or presence (black bars) of DEX (1 µM). 24 h later the percentage of apoptosis was determined by annexin-staining and FACS-analysis in untreated (CO) and stimulated cells at the time points indicated. • (b) P693 and CEM cells were treated with cisplatin (2 µg/ml) in the absence or presence of DEX as indicated. 24 and 48 h following treatment cells were lysed and caspase-8 activity was determined by a fluorescent caspase-8 assay and spectroscopy. • (c) P5 cells were stable transfected with empty vector (pcDNA3), or pcDNA3 vector encoding dominant negative FADD protein (FADD-DN). Proteins were extracted from both cell lines and expression of wildtype (WT) and FADD-DN (DN) was detected by Western blot. Left: Stable transfected P5 cells were treated with αAPO-1 (1 µg/ml) and 24 h later apoptosis was determined by staining with annexin/propidium iodide and flow-cytometry. […]
# caspase-3 [1] = test: Fluorometric caspase-3 activity assay in carcinoma cells; conditions: P5 and P693 cells, cisplatin 2 µg/ml alone; Fig. 1c
# Method: (§2) • (a) Human epidermoid lung cancer cells (P693) were injected into nude mice. At a tumour volume of 500 mm^3 weekly treatment with cisplatin (5mg/kg/week) was started. Cisplatin was injected intraperitoneally in the absence (CIS) or presence (DEX/CIS) of DEX which was added to the drinking water (0.28 mg/L) for the duration of the experiment. […] As controls, tumor growth of xenografts from mice which received neither cisplatin nor DEX (CO) or from mice which received DEX only (DEX) was determined. The tumour volume in each animal was measured at weekly intervals for a period of 5 weeks. Data are presented as the means +/- SD of 6 to 8 animals. • (b) The human cervical carcinoma cell lines HeLa and P5 were γ-irradiated (10 Gy) or treated with cisplatin (2 µg/ml) in the absence (white bars) or presence (black bars) of DEX (1 µM). The percentage of apoptosis was measured in untreated (CO) and stimulated cells by annexin-staining and FACS-analysis at the time points indicated. (c) P5, P693 and human leukemic T cells (CEM) cells were treated with cisplatin (2 µg/ml) in the absence or presence of DEX as indicated. 24 and 48 h following treatment cells were lysed and caspase-3 activity was determined by a fluorescent caspase-3 assay and spectroscopy.
# caspase-9 = test: Caspase-9 expression in leukemic T cells; conditions: cisplatin, data not shown
# [2] = tested on: P5 and HeLa cervix carcinoma cells; test: Apoptosis by annexin-V/FITC staining and flow cytometry in cervix carcinoma cells; conditions: cisplatin 2 µg/ml, absence of DEX, 24-72 h; Fig. 1b
# Method: as §2
# caspase-3 [3] = test: Fluorometric caspase-3 activity assay in CEM leukemic T cells; conditions: cisplatin 2 µg/ml alone, Fig. 1c
# Method: as §2
# caspase-8 = test: Fluorometric caspase-8 activity assay in P693 cells; conditions: cisplatin 2 µg/ml alone, Fig. 2b
# Method: as §1
# P5 cells = test: Specific apoptosis in P5 cells stably transfected with pcDNA3 or FADD-DN; conditions: 48 h, cisplatin 2 µg/ml; Fig. 2c right
# Method: as §1
structure (smiles),measurement,setting,value
N.N.[Cl][Pt][Cl] [cisplatin],"expression of DILs such as CD95-L, TRAIL and TNF-α","CD95-L, TRAIL and TNF-α",enhanced expression
same,caspase-3 activity,caspase-3 [1],induced 48 h following cisplatin
same,expression of caspase-9,caspase-9,neither induced
same,apoptosis,[2],detectable 24 h following treatment and increased during the next 48 and 72 h
same,caspase-3 activity,caspase-3 [3],responded earlier at 24 h with increased activity at 48 h
same,activity of caspase-8,caspase-8,induced 48 h following treatment
same,cisplatin-induced apoptosis,P5 cells,about 80%
